By IC50 is commonly meant the concentration that inhibits the measured activity by half.

The record followed here is patent US20260176289A1, “SMALL MOLECULE INHIBITORS OF KRAS PROTEINS” (Merck Sharp & Dohme LLC, priority 2022, published 2026).

Molecules are shown by their SMILES. Where two headings read alike, the source gives them in different places.

Experiment [1] addresses KRAS-WT (Homo sapiens, UniProt P01116). The experiment can be described thus: SOS-catalyzed nucleotide exchange assay (Procedure A, TR-FRET), KRAS-WT. It counts as biochemical. The conditions noted are these: nucleotide exchange, read-out: KRAS WT GNE IC50. An outline of the steps:
(§1)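 Biotinylated RAS (KRAS-G12C carries C51S/C80L/C118S; others WT background) preloaded with Bodipy-GDP plus Tb-streptavidin, preincubated with compound 60 min at RT, then human SOS and 3 mM GTP added. Final RAS/SOS: G12C 3 nM/40 nM, 60 min; WT 1 nM/40 nM, 60 min; G12V 1.25 nM/160 nM, 90 min; NRAS 1.25 nM/40 nM, 60 min. TR-FRET 520/495 ratio normalized to DMSO and saturating inhibitor; 10-point curves fit four-parameter logistic.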
On the technique in general: In TR-FRET formats the signal depends on donor and acceptor labels being close together.

Experiment [2] concerns the target KRAS-G12D (Homo sapiens, UniProt P01116, G12D). Description: SOS-catalyzed nucleotide exchange assay (Procedure A, TR-FRET), KRAS-G12D. It is filed as biochemical. The conditions noted are these: nucleotide exchange, read-out: KRAS G12D GNE IC50. An outline of the steps: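 Signal ratio (520/495 nm, excitation 340 nm) reports Bodipy-GDP retention on biotinylated RAS after SOS-catalyzed exchange with 3 mM GTP. SOS was 40 nM, except 160 nM for G12V. Room-temperature exchange lasted 60 min (90 min for G12V), following a 60 min compound preincubation.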

The target in experiment [3] is KRAS-G12V (Homo sapiens, UniProt P01116, G12V). The experiment can be described thus: SOS-catalyzed nucleotide exchange assay (Procedure A, TR-FRET), KRAS-G12V. It counts as biochemical. The settings on record: nucleotide exchange, read-out: KRAS G12V GNE IC50. Summed up:
as §1

Experiment [4] concerns MKN-1 cells. Description: Cellular phospho-ERK assay, MKN-1 cells (amplified wild-type KRAS). It counts as cell-based. The settings on record: Homo sapiens, read-out: MKN1 pERK IC50. The method, then: (§2) Procedure for Cellular Phospho-ERK Assay in KRAS Wild Type and Mutant (G12D, G12V) Cell Lines
(§3) MKN-1 cells (JCRB JCRB0252) containing amplified wild-type KRAS, were cultured in growth medium that contains RPMI 1640-GlutaMAX™-I (ThermoFisher Scientific 61870) containing 10% heat inactivated fetal bovine serum (ThermoFisher Scientific 10091148), 1 mM sodium pyruvate and 10 mM HEPES. PANC08.13 cells (ATCC® CRL-2551™), containing homozygous KRAS-G12D activating mutation, were cultured in growth medium made of RPMI1640-GlutaMAX™-I (ThermoFisher Scientific 61870) containing 15% heat inactivated fetal bovine serum (ThermoFisher Scientific 10091148)). AsPC-1 cells (ATCC® CRL-1682™), containing homozygous KRAS-G12D activating mutation, were cultured in T150 flask in growth medium (RPMI medium 1640-GlutaMAX™-I (ThermoFisher Scientific 61870) containing 10% fetal bovine serum (ThermoFisher Scientific 10091148)). SW620 cells (ATCC® […]), containing homozygous KRAS-G12V activating mutation, were cultured in growth medium that contains RPMI 1640-GlutaMAX™-I (ThermoFisher Scientific 61870) containing 10% heat inactivated fetal bovine serum (ThermoFisher Scientific 10091148).
(§4) Cells for the assay were harvested in growth medium after TrypLE (ThermoFisher scientific 12604021) digestion and were seeded in a 384-well collagen coated cell culture plate (Corning 356702) at a density of 10,000-15,000 cells/20 μL/well, and incubated at 37° C., 5% CO2 overnight. The compound (with 10 mM stock concentration) dose-response titrations were prepared [30 μM final ERK detection assay concentration and 1:3 dilutions, 10-point dose response] and appropriate amounts (270 nL) of test compounds were dispensed in a 384-well intermediate plate using an Echo 550 liquid handler. 30 μL/well of RPMI medium 1640-GlutaMAX™—I was added to the intermediate plate and the contents of the intermediate plate (10 μL/well) were then transferred to the 384-well collagen coated cell culture plate, which was incubated at 37° C., 5% CO2 for 2 hours. After removal of medium from the collagen coated cell culture plate, cells were lysed in lysis buffer from Alpha SureFire® Ultra™ Multiplex p-ERK and total ERK assay kit (PerkinElmer MPSU-PTERK) containing Halt™ Protease and Phosphatase inhibitor cocktail (ThermoFisher Scientific 78446) at room temperature with constant shaking at 300 rpm for 30 minutes. The cell lysates were then transferred to an OptiPlate-384 plate (PerkinElmer 6005620), and the phosphorylation of ERK (p-ERK) and total ERK levels were detected by Alpha SureFire® Ultra™ Multiplex p-EEK kit and total ERK assay kit (PerkinElmer MPSU-PTERK) following the manufacturer's protocol. Assay plates were read on a En Vision Multimode Plate Reader (PerkinElmer), and the ratio of p-ERK vs. total ERK in each well was used as the final readout. Dose response curves were analyzed using a 4-parameter logistic model to calculate IC50 values using Spotfire software.

For experiment [5], the system named is AsPC-1 cells. Description: Cellular phospho-ERK assay, AsPC-1 cells (homozygous KRAS-G12D). It counts as cell-based. The conditions noted are these: Homo sapiens, ASPC1, 2 h, read-out: AsPC1 pERK IC50. Summed up: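 ERK phosphorylation relative to total ERK is the endpoint, detected by AlphaScreen-based SureFire multiplex following a 2-hour treatment at 37 °C. Compounds are titrated 1:3 over ten points from 30 μM.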

The subject of experiment [6] is SW620 cells. The experiment can be described thus: Cellular phospho-ERK assay, SW620 cells (homozygous KRAS-G12V). It is filed as cell-based. The conditions noted are these: Homo sapiens, read-out: SW620 pERK IC50. As for the experimental part: as §2, §3, §4
Where [7] appears, read: SW-620, 2 hours compound incubation.
Where [8] appears, read: amplified wild-type KRAS, 2 hours.

KRAS-WT, sequence (P01116 with tags, fused parts or gaps isoform P01116-2): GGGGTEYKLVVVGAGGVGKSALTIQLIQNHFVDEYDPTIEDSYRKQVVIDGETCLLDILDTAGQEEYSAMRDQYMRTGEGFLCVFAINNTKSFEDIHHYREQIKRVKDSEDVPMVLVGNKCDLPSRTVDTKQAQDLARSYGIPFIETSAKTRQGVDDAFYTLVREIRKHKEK
KRAS-G12V, sequence (P01116 with tags, fused parts or gaps isoform P01116-2 G12V): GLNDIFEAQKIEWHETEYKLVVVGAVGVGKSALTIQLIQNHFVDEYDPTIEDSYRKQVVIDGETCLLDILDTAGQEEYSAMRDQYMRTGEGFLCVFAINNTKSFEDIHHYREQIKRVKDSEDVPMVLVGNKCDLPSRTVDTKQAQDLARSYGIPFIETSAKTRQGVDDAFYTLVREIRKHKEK
KRAS-G12D, sequence (P01116 with tags, fused parts or gaps isoform P01116-2 G12D): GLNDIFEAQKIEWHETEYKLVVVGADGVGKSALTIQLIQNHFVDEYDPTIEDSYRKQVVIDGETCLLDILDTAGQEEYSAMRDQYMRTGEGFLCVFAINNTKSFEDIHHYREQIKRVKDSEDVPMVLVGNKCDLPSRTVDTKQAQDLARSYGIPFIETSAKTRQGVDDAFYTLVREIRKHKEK

With `CC1(F)CCN(C[C@@]2(COc3nc(N4CCOC[C@@](C)(O)C4)c4c(n3)sc3c(-c5c(C6(F)CC6)c(Cl)cc6[nH]ncc56)nccc34)CC2(F)F)CC1` [Ex-232, (6S)-4-(8-(6-chloro-5-(1-fluorocyclopropyl)-1H-indazol-4-yl)-2-(((R)-2,2-difluoro-1-((4-fluoro-4-methylpiperidin-1-yl)methyl)cyclopropyl)metho-xy)pyrido[4′,3′:4,5]thieno[2,3-d]pyrimidin-4-yl)-6-methyl-1,4-oxazepan-6-ol], the half-inhibitory concentration (IC50) in experiment [1] was 762 nM; in experiment [2], 104 nM; in experiment [3] it was 197 nM; in experiment [4] (2 hours compound incubation), 84.2 nM; in experiment [5] (2 hours compound incubation), 188 nM; in experiment [6] (setting [7]), 117 nM.
For `C[C@@]1(O)COCCN(c2nc(OC[C@@]34CCCN3CC(=C(F)F)C4)nc3sc4c(-c5c(C6(F)CC6)c(Cl)cc6[nH]ncc56)nccc4c23)C1` [Ex-272, (6S)-4-(8-(6-chloro-5-(1-fluorocyclopropyl)-1H-indazol-4-yl)-2-(((S)-2-(difluoromethylene)tetra-hydro-1H-pyrrolizin-7a(5H)-yl)methoxy)pyri-do[4′,3′:4,5]thi-eno[2,3-d]pyrimidin-4-yl)-6-methyl-1,4-oxazepan-6-ol], the half-inhibitory concentration (IC50) in experiment [1] was determined as 29.3 nM; in experiment [2] it was 3.18 nM; in experiment [3] it was 19.4 nM; in experiment [4] (setting [8]) it was 50.5 nM; in experiment [5] (KRAS-G12D, 2 hours), 62.4 nM; in experiment [6] (SW-620, KRAS-G12V, 2 hours), 29.4 nM.
On to `Cc1c2nc(OC[C@@]34CCCN3C[C@H](F)C4)nc(N3CCOC[C@@](C)(O)C3)c2n2ccnc(-c3c(C4CC4)c(Cl)cc4[nH]ncc34)c12` (single isomer, unassigned) [Ex-302], for which the IC50 in experiment [1] was 18.6 nM; in experiment [2], 8.99 nM; in experiment [3] it was 17 nM; in experiment [4] (setting [8]) it was 49.5 nM; in experiment [5] (KRAS-G12D, 2 hours), 135 nM; in experiment [6] (SW-620, KRAS-G12V, 2 hours), 48.9 nM.
In the case of `Cc1cc2[nH]ncc2c(-c2nccc3c2sc2nc(OC[C@@]45CCCN4C[C@H](F)C5)nc(N4CCOC[C@]5(CCO5)C4)c23)c1C(F)(F)F` [Ex-198, (4S)-9-(2-(((2R,7aS)-2-fluorotetrahydro-1H-pyr-rolizin-7a(5H)-yl)meth-oxy)-8-(6-methyl-5-(tri-fluoromethyl)-1H-indazol-4-yl)pyrido[4′,3′:4,5]thieno[2,3-d]pyrimidin-4-yl)-1,6-dioxa-9-azaspiro [3.6]decane], the IC50 in experiment [1] came to 132 nM; in experiment [2] it was 36 nM; in experiment [3], 33.5 nM; in experiment [4] (2 hours compound incubation) it was 120 nM; in experiment [5] (2 hours compound incubation), 140 nM; in experiment [6] (setting [7]) it was 74.3 nM.
For `C[C@@]1(O)COCCN(c2nc(OC[C@@]34CCCN3C[C@H](F)C4)nc3c(F)c4c(-c5c(C6CC6)c(Cl)cc6[nH]ncc56)nccn4c23)C1` [Ex-305, (S)-4-(9-(6-chloro-5-cyclopropyl-1H-indazol-4-yl)-10-fluoro-2-(((2R,7aS)-2-fluorotetrahydro-1H-pyrrolizin-7a(5H)-yl)methoxy)pyrazino[1′,2′:1,5]pyrrolo[3,2-d]pyrimidin-4-yl)-6-methyl-1,4-oxazepan-6-ol], the IC50 is 37 nM in experiment [1]; 11.6 nM in experiment [2]; 23.8 nM in experiment [3]; 93 nM in experiment [4] (setting [8]); 212 nM in experiment [5] (KRAS-G12D, 2 hours); 54.7 nM in experiment [6] (SW-620, KRAS-G12V, 2 hours).
On to `CN(C)C[C@@]1(COc2nc(N3CCOC[C@@](C)(O)C3)c3c(n2)sc2c(-c4c(C5(F)CC5)c(Cl)cc5[nH]ncc45)nccc23)CC1(F)F` [Ex-132, (6S)-4-(8-(6-chloro-5-(1-fluorocyclo-propyl)-1H-indazol-4-yl)-2-(((R)-1-((dimethylamino)-methyl)-2,2-di-fluorocyclopropyl)-methoxy)pyrido [4′,3′:4,5]thieno[2,3-d]pyrimidin-4-yl)-6-methyl-1,4-oxaze-pan-6-ol], for which the IC50 in experiment [1] worked out at 15.7 nM; in experiment [2] it was 5.45 nM; in experiment [3], 13.9 nM; in experiment [4] (2 hours compound incubation) it was 44.4 nM; in experiment [5] (2 hours compound incubation) it was 24 nM; in experiment [6] (setting [7]), 14.5 nM.
With `C=C1CCCc2cc3[nH]ncc3c(-c3nccc4c3sc3nc(OC[C@@]56CCCN5C[C@H](F)C6)nc(N5CCOC[C@@](C)(O)C5)c34)c21` [Ex-115, (6S)-4-(2-(((2R,7aS)-2-fluorotetrahydro-1H-pyrrolizin-7a(5H)-yl)methoxy)-8-(5-methylene-5,6,7,8-tetrahydro-1H-benzo[f]indazol-4-yl)pyrido[4′,3′:4,5]thieno [2,3-d]pyrimidin-4-yl)-6-methyl-1,4-oxazepan-6-ol], the IC50 in experiment [1] was determined as 10.8 nM; in experiment [2], 3.98 nM; in experiment [3] it was 13.2 nM; in experiment [4] (setting [8]), 24.6 nM; in experiment [5] (KRAS-G12D, 2 hours), 46.6 nM; in experiment [6] (SW-620, KRAS-G12V, 2 hours) it was 18.9 nM.
Regarding `C[C@@]1(O)COCCN(c2nc(OC[C@@]34CCCN3C[C@H](F)C4)nc3sc4c(-c5c6cn[nH]c6cc6cccc(Cl)c56)nccc4c23)C1` [Ex-161, (6S)-4-(8-(5-chloro-1H-benzo[f]indazol-4-yl)-2-(((2R,7aS)-2-fluorotetrahydro-1H-pyrrolizin-7a(5H)-yl)methoxy)pyrido[4′,3′:4,5]thieno[2,3-d]pyrimidin-4-yl)-6-methyl-1,4-oxazepan-6-ol], the IC50 in experiment [1] is 15.2 nM; in experiment [2], 6.04 nM; in experiment [3], 11.4 nM; in experiment [4] (2 hours compound incubation), 28.4 nM; in experiment [5] (2 hours compound incubation) it was 61.7 nM; in experiment [6] (setting [7]), 32.1 nM.
On to `Cc1cc2[nH]ncc2c(-c2nccc3c2sc2nc(OC[C@@]45CCCN4C[C@H](F)C5)nc(N4CCOCC5(CCCO5)C4)c23)c1C(F)(F)F` (stereo partly drawn) [Ex-197, 10-(2-(((2R,7aS)-2-fluoro-tetrahydro-1H-pyrrolizin-7a(5H)-yl)methoxy)-8-(6-methyl-5-(trifluorometh-yl)-1H-indazol-4-yl)pyrido [4′,3′:4,5]thieno[2,3-d]pyrimidin-4-yl)-1,7-dioxa-10-azaspiro[4.6]undecane], for which the IC50 in experiment [1] was 432 nM; in experiment [2], 200 nM; in experiment [3], 186 nM; in experiment [4] (2 hours compound incubation), 513 nM; in experiment [5] (2 hours compound incubation), 393 nM; in experiment [6] (setting [7]) it was 459 nM.
